Experimental data: the supplement of paper PMC11061612

Tests used:
Assay in all cases: combination Emax (second highest fraction inhibited in the dose matrix, 72 h); higher = more inhibition; extreme values may be limits of the assay
[1] = test system: TE-15 (Esophageal Squamous Cell Carcinoma)
Procedure, shortened: (§1)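 After 24 hours at 37°C and 5% CO2 in 1536-well plates, cells in DMEM/F12 or RPMI plus 10% FBS received two-drug dose matrices for 72 hours. Viability came from CellTiter-Glo 2.0 luminescence and was scaled as inhibition, anchored at 0 by vehicle wells and at 1 by blank wells. Combination Emax is taken as the second-highest inhibition in the matrix, and Bliss excess as the observed combination effect less EA + EB − EA·EB, with EA and EB the single-agent effects.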

[2] = test system: MDA-MB-361 (Breast Carcinoma)
Procedure, shortened: as §1

[3] = test system: Calu-3 (Lung Adenocarcinoma)
Procedure, shortened: as §1

[4] = test system: CCRF-CEM (T-Lymphoblastic Leukemia)
Procedure, shortened: as §1

[5] = test system: NB10 (Neuroblastoma)
Procedure, shortened: as §1

[6] = test system: HCC-78 (Lung Adenocarcinoma)
Procedure, shortened: as §1

[7] = test system: EC-GI-10 (Esophageal Squamous Cell Carcinoma)
Procedure, shortened: as §1

[8] = test system: KP-1N (Pancreatic Carcinoma)
Procedure, shortened: as §1

[9] = test system: Hs-578-T (Breast Carcinoma)
Procedure, shortened: as §1

[10] = test system: LS-180 (Colorectal Carcinoma)
Procedure, shortened: as §1

[11] = test system: DoTc2-4510 (Cervical Carcinoma)
Procedure, shortened: as §1

[12] = test system: MFE-296 (Endometrial Carcinoma)
Procedure, shortened: as §1

Compound	combination Emax [1]	combination Emax [2]	combination Emax [3]	combination Emax [4]	combination Emax [5]	combination Emax [6]	combination Emax [7]	combination Emax [8]	combination Emax [9]	combination Emax [10]	combination Emax [11]	combination Emax [12]
COc1cccc(OCCCN)c1-c1cc(Nc2cnc(C#N)cn2)n[nH]1 [Prexasertib] + Cc1cc2ncnn2cc1Nc1ncc2c(n1)n(C1CCOCC1)c(=O)n2C [AZD7648] (first compound max 1 µM, 7x7, partner max 10 µM)	0.831	0.929	0.416	1	0.918	0.736	0.713	0.246	0.925	0.789	0.86	0.569
NC1(C(=O)N[C@@H](CCO)c2ccc(Cl)cc2)CCN(c2ncnc3[nH]ccc23)CC1 [Capivasertib] + COc1nnc2ccc(N3CCC(c4ccc(OCCN5CCN(C)C(=O)[C@H]5C)cc4)CC3)nn12 [AZD5153] (first compound max 10 µM, 7x7, partner max 1 µM)	0.693	0.718	0.749	0.905	0.527	0.389	0.543	0.621	0.887	0.694	0.317	0.694
CN(CCO)CC[C@H](CSc1ccccc1)Nc1ccc(S(=O)(=O)NC(=O)c2ccc(N3CCC([C@@H](O)c4ccccc4-c4ccc(Cl)cc4)CC3)cc2)cc1S(=O)(=O)C(F)(F)F [AZD4320] + Cc1cc2ncnn2cc1Nc1ncc2c(n1)n(C1CCOCC1)c(=O)n2C [AZD7648] (first compound max 1 µM, 7x7, partner max 10 µM)	0.0708	0.459	0.182	1	0.172	0.175	0.232	0.0993	0.63	0.234	0.499	0.124
COc1cccc2c1C(=O)c1c(O)c3c(c(O)c1C2=O)C[C@@](O)(C(=O)CO)C[C@@H]3O[C@H]1C[C@H](N)[C@H](O)[C@H](C)O1 [Doxorubicin] + Cc1cc2ncnn2cc1Nc1ncc2c(n1)n(C1CCOCC1)c(=O)n2C [AZD7648] (first compound max 1 µM, 7x7, partner max 10 µM)	0.721	0.537	0.301	1	0.863	0.751	0.693	0.675	0.856	0.736	0.844	0.295
CN(CCO)CC[C@H](CSc1ccccc1)Nc1ccc(S(=O)(=O)NC(=O)c2ccc(N3CCC([C@@H](O)c4ccccc4-c4ccc(Cl)cc4)CC3)cc2)cc1S(=O)(=O)C(F)(F)F [AZD4320] + Cn1cnc2c(F)c(Nc3ccc(Br)cc3Cl)c(C(=O)NOCCO)cc21 [Selumetinib] (first compound max 1 µM, 7x7, partner max 3 µM)	0.43	0.334	0.245	0.993	0.887	0.305	0.51	0.196	0.812	0.691	0.906	0.396
CC1(C)CCC(CN2CCN(c3ccc(C(=O)NS(=O)(=O)c4ccc(NCC5CCOCC5)c([N+](=O)[O-])c4)c(Oc4cnc5[nH]ccc5c4)c3)CC2)=C(c2ccc(Cl)cc2)C1 [Venetoclax] + C=CCn1c(=O)c2cnc(Nc3ccc(N4CCN(C)CC4)cc3)nc2n1-c1cccc(C(C)(C)O)n1 [AZD1775] (first compound max 1 µM, partner max 1 µM)	0.796	0.865	0.218	1	0.865	0.701	0.903	0.44	0.909	0.42	0.633	0.3
COc1cccc(OCCCN)c1-c1cc(Nc2cnc(C#N)cn2)n[nH]1 [Prexasertib] + CN(C)CCCOc1ccc(-c2ccc3ncc4c(c3c2)n(C2CCOCC2)c(=O)n4C)cn1 [AZD0156] (first compound max 1 µM, 7x7, partner max 1 µM)	0.831	0.954	0.409	1	0.928	0.685	0.735	0.298	0.942	0.789	0.89	0.583
